Measurements from US7087758B2, “Quinoline inhibitors of hyaki and hyak3 kinases” (SmithKline Beecham Corporation, priority 2001, dated 2006).
Where “and” joins values, the source holds several entries; their conditions need not be identical. Equal values may be shown once.

Target: T1, hYAK1 (Homo sapiens, UniProt Q92630)
T1 construct: DET1/DET2-tagged full length hYAK1 was expressed in Drosophila sf9 cells; DET1/DET2 tag (purified on Ni column); made in house; host or cells: "Drosophila sf9 cells" as printed (insect cells)
T1 sequence (Q92630 1-528 isoform Q92630-2): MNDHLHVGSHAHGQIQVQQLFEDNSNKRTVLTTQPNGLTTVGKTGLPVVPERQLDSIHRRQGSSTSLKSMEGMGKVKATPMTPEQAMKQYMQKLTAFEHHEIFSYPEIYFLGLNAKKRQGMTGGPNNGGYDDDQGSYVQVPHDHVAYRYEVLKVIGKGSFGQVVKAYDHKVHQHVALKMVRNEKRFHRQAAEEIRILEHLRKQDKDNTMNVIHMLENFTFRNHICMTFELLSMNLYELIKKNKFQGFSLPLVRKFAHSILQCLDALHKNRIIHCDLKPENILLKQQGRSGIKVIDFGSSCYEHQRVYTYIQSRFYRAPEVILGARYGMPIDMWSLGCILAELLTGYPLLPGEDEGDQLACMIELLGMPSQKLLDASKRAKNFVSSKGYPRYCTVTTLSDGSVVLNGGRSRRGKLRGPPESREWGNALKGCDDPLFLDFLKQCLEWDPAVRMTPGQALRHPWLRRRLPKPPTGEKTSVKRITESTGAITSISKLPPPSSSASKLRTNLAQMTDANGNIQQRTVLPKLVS
Test: FlashPlate kinase assay of hYAK1 (Ni-hYAK1)
Assay type: biochemical
Description: This same assay can be performed on a FlashPlate format in which the plate is coated with MBP or with the S164 peptide by incubation overnight at 4° C. in 100 ul of either substrate dissolved in Sodium Carbonate buffer, pH 8.8. When coating with MBP, a solution of 100 ug/ml MBP was used to coat wells with 100 ul (10 ug) MBP per well. When coating with Ser164, a solution of 0.4 mg/ml (0.25 mM) was used to coat wells with 100 ul (40 ug) Ser164 per well. An example of a FlashPlate assay protocol and typical results are given below:
• 1. Coat Maxisorp plates (Nunk, Immunoplate, Maxisorp™) with MBP or Ser164 as above. • 2. Wash plates once with kinase assay buffer (KB): 25 mM Hepes, pH 7.5; 0.2 mM NaV; 10 mM.-glycerol phosphate; 1 mM Na pyrophosphate • 3. Add enzyme (Ni-hYAK1, diluted in KB), DMSO or inhibitors (in KB) and keep on ice 30 min • 4. Add KB containing Mg/AJP to a [final] of 0.1 mM [.-33P]ATP and 10 mM MgCl2 • 5. Incubate with shaking, 1–2 hrs, RT • 6. Aspirate and wash 6×0.5 ml KB • 7. Read 33P incorporation in FP reader • 8. Blank=No enzyme added • 9. Reaction volume: 25, 50 or 100 ul • 10. 0.5 or 1.0 uCi 33P/0.1 mM ATP • 11. MBP-FP better than basic FP (in house coating) • 12. 37° C. incubation was not better (several time points) • 13. Other incubation times at RT were not better Results: […]

Compound	IC50 (0.3 ug hYAK1)	IC50 (0.1 ug hYAK1) [nM]
COC(=O)[C@@]1(O)C[C@H]2O[C@]1(C)n1c3ccccc3c3c4c(c5c6ccccc6n2c5c31)C(=O)NC4 [Example K252a]	552 nM and 427 nM	–
NC1=N/C(=C2/CCNC(=O)c3[nH]c(Br)cc32)C(=O)N1 [SKF-108752]	130 nM and 160 nM	190
